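Briefly, cells in 96-well plates were exposed to five compound concentrations for 48 h, and endpoints were estimated by linear interpolation. Abbreviation: GI50, concentration required for 50% inhibition of growth.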 Calls of active or inactive are those of the source. No stated cut-off is given here; in the data, active = GI50 up to about 1.1 µM and inactive = higher.
How the values were obtained:
Assay in all cases: inhibition of tumour cell growth, NCI panel, 48 h
[1] = system: NCI-H23
[2] = system: SW-620
[3] = system: SN12C
[4] = system: K562
[5] = system: SK-MEL-5
[6] = system: NCI-H460
[7] = system: SNB-75
[8] = system: UO-31
[9] = system: EKVX
[10] = system: MOLT-4
[11] = system: HCT-116
[12] = system: HOP-62
[13] = system: UACC-62
[14] = system: NCI-H522
[15] = system: OVCAR-4
[16] = system: HT-29
[17] = system: OVCAR-8
[18] = system: SNB-19
[19] = system: U-251
[20] = system: Malme-3M

Measured: GI50

O=C(O)/C=C/c1c[nH]cn1
inactive: [1] > 500 µM | [2] > 500 µM | [3] > 500 µM | [4] > 500 µM | [5] > 232 µM | [6] > 500 µM | [7] > 500 µM | [8] > 500 µM | [9] > 500 µM | [10] > 500 µM | [11] > 500 µM | [12] 493 µM | [13] > 500 µM | [14] > 500 µM | [15] > 500 µM | [16] > 500 µM | [17] > 500 µM | [18] > 500 µM | [19] > 500 µM | [20] > 500 µM

CN(CCO)CCC1COc2ccccc2O1 (stereo not given)
inactive: [1] > 10 µM | [2] > 10 µM | [3] > 10 µM | [4] > 10 µM | [5] > 10 µM | [6] > 10 µM | [7] > 10 µM | [8] > 10 µM | [9] > 10 µM | [10] > 10 µM | [11] > 10 µM | [12] > 10 µM | [13] > 10 µM | [14] 2.21 µM | [15] > 10 µM | [16] > 10 µM | [17] > 10 µM | [18] > 10 µM | [19] > 10 µM | [20] > 10 µM

Cc1nnc2sc(N/N=C/c3ccccc3)nn12
inactive: [1] > 100 µM | [2] > 100 µM | [3] > 100 µM | [4] > 100 µM | [5] > 100 µM | [6] > 100 µM | [7] > 100 µM | [8] > 100 µM | [9] > 100 µM | [10] > 100 µM | [11] > 100 µM | [12] > 100 µM | [13] 23.5 µM | [14] > 100 µM | [15] > 100 µM | [16] > 100 µM | [17] > 100 µM | [18] > 100 µM | [19] > 100 µM | [20] > 100 µM

N#CSCC1COc2ccccc2O1 (stereo not given)
inactive: [1] > 10 µM | [2] 4.97 µM | [3] 7.57 µM | [4] 1.77 µM | [5] 6.87 µM | [6] > 10 µM | [7] > 10 µM | [8] > 10 µM | [9] > 10 µM | [10] 3.3 µM | [11] 5.92 µM | [12] > 10 µM | [13] > 10 µM | [14] 2.62 µM | [15] > 10 µM | [16] > 10 µM | [17] > 10 µM | [18] > 10 µM | [19] > 10 µM | [20] > 10 µM

CCC1CN2CCC1CC2 (stereo not given)
inactive: [1] > 100 µM | [2] > 100 µM | [3] > 100 µM | [4] > 100 µM | [5] > 100 µM | [6] > 100 µM | [7] > 100 µM | [8] > 100 µM | [9] > 100 µM | [10] > 100 µM | [11] > 100 µM | [12] > 100 µM | [13] > 100 µM | [14] > 100 µM | [15] > 100 µM | [16] > 100 µM | [17] > 100 µM | [18] > 100 µM | [19] > 100 µM | [20] > 100 µM
